Paper PMC6138237, “Machine intelligence decrypts β-lapachone as an allosteric 5-lipoxygenase inhibitor” (Chemical Science, 2018)
Where two headings read alike, the source gives them in different places.

Assays:
Type in all cases: biochemical
[1] = biological target: T1, NEK2 (Homo sapiens, UniProt P51955); test: ExpresS Diversity Kinase Profile, Cerep (LANCE): NEK2
T1 sequence (P51955 1-445): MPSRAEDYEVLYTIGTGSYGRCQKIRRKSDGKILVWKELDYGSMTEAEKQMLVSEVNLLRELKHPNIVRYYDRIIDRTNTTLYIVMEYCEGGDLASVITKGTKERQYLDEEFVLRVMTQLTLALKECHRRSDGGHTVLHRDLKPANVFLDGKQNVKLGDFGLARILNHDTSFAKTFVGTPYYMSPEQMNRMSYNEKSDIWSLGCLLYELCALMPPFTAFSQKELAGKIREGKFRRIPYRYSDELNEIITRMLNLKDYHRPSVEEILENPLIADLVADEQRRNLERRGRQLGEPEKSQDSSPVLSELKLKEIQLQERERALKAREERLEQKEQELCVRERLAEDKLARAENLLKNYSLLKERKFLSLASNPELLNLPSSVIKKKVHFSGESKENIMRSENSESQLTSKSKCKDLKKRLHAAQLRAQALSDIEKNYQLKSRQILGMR

[2] = biological target: EphA2 (Homo sapiens, UniProt P29317); test: ExpresS Diversity Kinase Profile, Cerep (LANCE): EphA2
[3] = biological target: VEGFR2 (Homo sapiens, UniProt P35968); test: ExpresS Diversity Kinase Profile, Cerep (LANCE): VEGFR2
[4] = biological target: MARK1 (Homo sapiens, UniProt Q9P0L2); test: ExpresS Diversity Kinase Profile, Cerep (LANCE): MARK1
[5] = biological target: PKA (Homo sapiens, UniProt P17612); test: ExpresS Diversity Kinase Profile, Cerep (LANCE): PKA
[6] = biological target: T2, PDK1 (Homo sapiens, UniProt O15530); test: ExpresS Diversity Kinase Profile, Cerep (LANCE): PDK1
T2 sequence (O15530 1-556): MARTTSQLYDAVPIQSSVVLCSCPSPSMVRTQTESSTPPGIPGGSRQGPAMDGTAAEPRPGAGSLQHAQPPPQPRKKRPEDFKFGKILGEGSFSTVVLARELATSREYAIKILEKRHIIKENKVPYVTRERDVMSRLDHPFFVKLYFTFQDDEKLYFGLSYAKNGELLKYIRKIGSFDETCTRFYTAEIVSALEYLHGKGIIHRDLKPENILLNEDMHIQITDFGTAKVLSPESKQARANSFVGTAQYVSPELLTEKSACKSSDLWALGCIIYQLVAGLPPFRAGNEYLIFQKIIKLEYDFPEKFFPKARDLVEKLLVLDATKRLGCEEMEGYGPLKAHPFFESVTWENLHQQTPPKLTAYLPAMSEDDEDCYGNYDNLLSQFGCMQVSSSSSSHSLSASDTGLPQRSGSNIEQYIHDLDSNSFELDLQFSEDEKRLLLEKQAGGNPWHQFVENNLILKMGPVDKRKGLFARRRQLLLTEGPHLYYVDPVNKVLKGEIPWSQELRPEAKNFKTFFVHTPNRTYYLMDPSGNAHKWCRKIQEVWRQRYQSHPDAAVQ

[7] = biological target: MAP4K4 (Homo sapiens, UniProt O95819); test: ExpresS Diversity Kinase Profile, Cerep (LANCE): MAP4K4
[8] = biological target: T3, IRAK4 (Homo sapiens, UniProt Q9NWZ3); test: ExpresS Diversity Kinase Profile, Cerep (LANCE): IRAK4
T3 sequence (Q9NWZ3 1-460): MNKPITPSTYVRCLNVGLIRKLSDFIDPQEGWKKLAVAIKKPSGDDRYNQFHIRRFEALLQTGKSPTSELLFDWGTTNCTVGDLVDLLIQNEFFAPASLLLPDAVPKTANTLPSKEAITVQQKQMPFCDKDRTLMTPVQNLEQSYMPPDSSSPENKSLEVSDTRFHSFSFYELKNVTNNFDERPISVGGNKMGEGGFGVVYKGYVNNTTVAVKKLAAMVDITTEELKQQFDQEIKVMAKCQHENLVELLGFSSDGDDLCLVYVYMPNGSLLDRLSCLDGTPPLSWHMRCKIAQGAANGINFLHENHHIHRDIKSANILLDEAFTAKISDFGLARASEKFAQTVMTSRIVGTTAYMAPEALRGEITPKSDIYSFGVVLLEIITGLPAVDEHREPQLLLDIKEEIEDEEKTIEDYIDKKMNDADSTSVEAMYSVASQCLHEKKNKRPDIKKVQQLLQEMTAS

[9] = Flag: Interference, read-out: % Inhibition of control values, 1st measurement
[10] = Flag: Interference, read-out: % Inhibition of control values, 2nd measurement
[11] = n = 2, Flag: Interference, read-out: % Inhibition of control values, Mean
[12] = n = 2, read-out: % Inhibition of control values, Mean
[13] = read-out: % Inhibition of control values, 1st measurement
[14] = read-out: % Inhibition of control values, 2nd measurement

Sequence of MAP4K4 (O95819 whole entry): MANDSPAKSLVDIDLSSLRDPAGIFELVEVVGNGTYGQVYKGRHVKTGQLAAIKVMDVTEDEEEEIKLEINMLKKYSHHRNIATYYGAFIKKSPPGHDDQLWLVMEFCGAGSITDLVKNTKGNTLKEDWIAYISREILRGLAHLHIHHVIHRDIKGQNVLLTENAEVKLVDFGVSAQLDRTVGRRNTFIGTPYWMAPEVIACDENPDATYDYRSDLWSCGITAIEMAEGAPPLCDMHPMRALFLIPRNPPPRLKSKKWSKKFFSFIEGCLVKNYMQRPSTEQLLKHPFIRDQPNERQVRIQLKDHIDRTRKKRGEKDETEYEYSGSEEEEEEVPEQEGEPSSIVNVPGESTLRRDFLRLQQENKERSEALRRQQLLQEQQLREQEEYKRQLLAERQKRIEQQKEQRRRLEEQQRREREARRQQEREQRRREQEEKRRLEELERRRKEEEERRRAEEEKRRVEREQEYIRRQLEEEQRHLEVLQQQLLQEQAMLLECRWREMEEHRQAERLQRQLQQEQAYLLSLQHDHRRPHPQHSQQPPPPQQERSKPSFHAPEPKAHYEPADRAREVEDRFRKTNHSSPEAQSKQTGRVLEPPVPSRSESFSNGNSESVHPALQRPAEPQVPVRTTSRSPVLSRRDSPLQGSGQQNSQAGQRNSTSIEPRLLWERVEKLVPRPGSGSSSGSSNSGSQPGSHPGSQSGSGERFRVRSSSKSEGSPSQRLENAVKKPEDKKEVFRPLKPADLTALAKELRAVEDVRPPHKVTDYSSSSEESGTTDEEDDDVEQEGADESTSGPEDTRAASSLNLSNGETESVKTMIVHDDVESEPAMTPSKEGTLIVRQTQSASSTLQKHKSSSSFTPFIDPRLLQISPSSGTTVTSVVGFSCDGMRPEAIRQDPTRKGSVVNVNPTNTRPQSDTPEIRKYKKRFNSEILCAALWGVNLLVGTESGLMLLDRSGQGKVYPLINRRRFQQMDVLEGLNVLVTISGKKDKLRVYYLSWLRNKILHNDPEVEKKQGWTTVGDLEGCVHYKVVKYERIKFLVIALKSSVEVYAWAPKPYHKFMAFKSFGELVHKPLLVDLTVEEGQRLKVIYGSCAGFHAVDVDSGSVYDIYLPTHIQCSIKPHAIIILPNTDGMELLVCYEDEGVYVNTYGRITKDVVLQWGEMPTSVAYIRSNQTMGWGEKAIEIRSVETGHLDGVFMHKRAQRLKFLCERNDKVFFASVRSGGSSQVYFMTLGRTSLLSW
Sequence of MARK1 (Q9P0L2 whole entry): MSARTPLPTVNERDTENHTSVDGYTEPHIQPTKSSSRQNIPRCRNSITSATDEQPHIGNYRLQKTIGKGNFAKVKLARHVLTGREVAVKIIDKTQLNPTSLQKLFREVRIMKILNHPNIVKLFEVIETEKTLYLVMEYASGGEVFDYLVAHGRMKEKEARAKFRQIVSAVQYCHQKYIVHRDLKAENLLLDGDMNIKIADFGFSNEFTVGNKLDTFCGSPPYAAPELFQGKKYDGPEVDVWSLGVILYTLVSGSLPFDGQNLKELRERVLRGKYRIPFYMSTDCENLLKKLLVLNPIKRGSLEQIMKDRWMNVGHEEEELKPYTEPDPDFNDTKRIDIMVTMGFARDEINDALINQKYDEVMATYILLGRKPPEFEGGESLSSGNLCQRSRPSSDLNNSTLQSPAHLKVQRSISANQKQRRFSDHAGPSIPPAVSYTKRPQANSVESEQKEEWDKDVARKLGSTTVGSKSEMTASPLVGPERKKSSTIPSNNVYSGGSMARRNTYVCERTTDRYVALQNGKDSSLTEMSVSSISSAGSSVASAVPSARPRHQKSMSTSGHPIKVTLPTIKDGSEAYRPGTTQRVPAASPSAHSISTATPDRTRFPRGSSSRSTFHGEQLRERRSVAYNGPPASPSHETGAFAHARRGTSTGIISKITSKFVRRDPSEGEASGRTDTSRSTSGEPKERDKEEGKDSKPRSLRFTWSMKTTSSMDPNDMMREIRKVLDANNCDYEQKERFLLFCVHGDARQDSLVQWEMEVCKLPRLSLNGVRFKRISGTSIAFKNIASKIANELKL
Sequence of VEGFR2 (P35968 20-1356): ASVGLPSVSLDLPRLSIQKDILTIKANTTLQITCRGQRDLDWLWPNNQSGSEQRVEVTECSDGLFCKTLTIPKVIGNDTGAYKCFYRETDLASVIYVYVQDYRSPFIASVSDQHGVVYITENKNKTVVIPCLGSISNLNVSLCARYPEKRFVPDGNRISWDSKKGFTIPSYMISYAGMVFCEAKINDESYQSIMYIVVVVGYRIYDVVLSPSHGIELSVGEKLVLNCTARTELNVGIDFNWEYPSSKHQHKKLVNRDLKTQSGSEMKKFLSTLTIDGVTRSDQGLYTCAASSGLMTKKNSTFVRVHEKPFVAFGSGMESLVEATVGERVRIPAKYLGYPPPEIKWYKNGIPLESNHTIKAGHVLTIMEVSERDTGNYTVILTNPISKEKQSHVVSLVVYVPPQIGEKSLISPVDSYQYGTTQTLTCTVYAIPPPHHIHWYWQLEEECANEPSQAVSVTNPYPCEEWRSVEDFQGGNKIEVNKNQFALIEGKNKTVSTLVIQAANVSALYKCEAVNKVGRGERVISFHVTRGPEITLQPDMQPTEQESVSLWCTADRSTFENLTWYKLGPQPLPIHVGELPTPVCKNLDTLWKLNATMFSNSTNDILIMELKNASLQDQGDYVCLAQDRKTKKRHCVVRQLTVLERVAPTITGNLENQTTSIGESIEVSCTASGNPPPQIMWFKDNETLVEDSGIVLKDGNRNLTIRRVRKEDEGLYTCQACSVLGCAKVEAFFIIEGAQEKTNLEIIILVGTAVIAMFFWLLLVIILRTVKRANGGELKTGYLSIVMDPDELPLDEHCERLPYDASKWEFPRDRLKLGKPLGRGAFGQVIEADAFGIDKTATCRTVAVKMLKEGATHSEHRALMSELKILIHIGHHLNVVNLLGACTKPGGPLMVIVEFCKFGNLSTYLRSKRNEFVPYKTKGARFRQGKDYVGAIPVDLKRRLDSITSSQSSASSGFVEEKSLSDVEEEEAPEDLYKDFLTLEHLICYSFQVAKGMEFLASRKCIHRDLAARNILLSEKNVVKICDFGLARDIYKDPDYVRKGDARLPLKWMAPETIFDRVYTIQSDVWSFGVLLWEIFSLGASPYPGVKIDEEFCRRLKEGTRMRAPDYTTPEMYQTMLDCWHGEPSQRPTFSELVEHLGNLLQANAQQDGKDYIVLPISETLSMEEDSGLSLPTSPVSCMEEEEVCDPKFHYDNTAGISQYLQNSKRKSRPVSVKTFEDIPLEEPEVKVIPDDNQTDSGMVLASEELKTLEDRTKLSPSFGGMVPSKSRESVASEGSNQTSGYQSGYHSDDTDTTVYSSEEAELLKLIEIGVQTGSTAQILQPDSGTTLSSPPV
Sequence of EphA2 (P29317 24-976): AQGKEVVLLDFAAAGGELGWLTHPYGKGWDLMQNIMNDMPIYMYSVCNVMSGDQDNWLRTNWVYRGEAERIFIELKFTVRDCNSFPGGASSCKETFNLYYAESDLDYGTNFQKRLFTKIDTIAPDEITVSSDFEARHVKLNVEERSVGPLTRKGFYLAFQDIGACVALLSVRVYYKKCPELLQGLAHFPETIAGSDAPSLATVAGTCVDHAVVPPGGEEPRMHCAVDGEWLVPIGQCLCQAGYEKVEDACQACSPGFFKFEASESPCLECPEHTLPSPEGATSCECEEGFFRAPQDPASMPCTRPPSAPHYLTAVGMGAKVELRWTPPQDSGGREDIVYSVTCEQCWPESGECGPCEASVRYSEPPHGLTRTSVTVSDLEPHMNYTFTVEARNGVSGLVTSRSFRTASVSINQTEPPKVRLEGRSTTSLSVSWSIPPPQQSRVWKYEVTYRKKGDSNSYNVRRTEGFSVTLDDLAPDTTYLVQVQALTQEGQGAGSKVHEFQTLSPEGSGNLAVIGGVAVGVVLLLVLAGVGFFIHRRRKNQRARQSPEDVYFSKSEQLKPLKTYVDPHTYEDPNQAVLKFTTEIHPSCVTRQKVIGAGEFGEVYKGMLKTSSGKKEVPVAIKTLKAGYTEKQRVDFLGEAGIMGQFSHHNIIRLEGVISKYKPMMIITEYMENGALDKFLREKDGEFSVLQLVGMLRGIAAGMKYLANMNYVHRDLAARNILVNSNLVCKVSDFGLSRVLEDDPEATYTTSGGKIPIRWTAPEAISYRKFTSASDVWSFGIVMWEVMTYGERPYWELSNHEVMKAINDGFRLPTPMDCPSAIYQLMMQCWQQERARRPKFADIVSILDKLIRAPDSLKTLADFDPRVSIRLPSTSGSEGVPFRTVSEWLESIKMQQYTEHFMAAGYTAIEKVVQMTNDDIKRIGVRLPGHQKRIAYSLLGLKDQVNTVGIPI

CN[C@@H]1C[C@H]2O[C@@](C)([C@@H]1OC)n1c3ccccc3c3c4c(c5c6ccccc6n2c5c31)C(=O)NC4 [Staurosporine, reference compound]
nHill ([1]; control): 0.9
nHill ([2]; control): 1.6
nHill ([3]; control): 1.2
nHill ([4]; control): 2.5
nHill ([5]; control): > 3
nHill ([6]; control): > 3
nHill ([7]; control): 2.7
nHill ([8]; control): 0.7

CC1(C)CCC2=C(O1)c1ccccc1C(=O)C2=O [β-Lapachone]
inhibition at 150 µM [1, 9]: 19%
inhibition at 150 µM [1, 10]: 18.4%
inhibition at 150 µM [1, 11]: 18.7%
inhibition at 150 µM [2, 9]: 63.7%
inhibition at 150 µM [2, 10]: 63.5%
inhibition at 150 µM [2, 11]: 63.6%
inhibition at 150 µM [3, 12]: 82.3%
inhibition at 150 µM [3, 13]: 82.7%
inhibition at 150 µM [3, 14]: 82%
inhibition at 150 µM [4, 12]: -57.4%
inhibition at 150 µM [4, 13]: -70.1%
inhibition at 150 µM [4, 14]: -44.7%
inhibition at 150 µM [5, 9]: -10.5%
inhibition at 150 µM [5, 10]: -5.4%
inhibition at 150 µM [5, 11]: -8%
inhibition at 150 µM [6, 12]: 1.4%
inhibition at 150 µM [6, 13]: 8.9%
inhibition at 150 µM [6, 14]: -6.1%
inhibition at 150 µM [7, 12]: 48.6%
inhibition at 150 µM [7, 13]: 47.7%
inhibition at 150 µM [7, 14]: 49.5%
inhibition at 150 µM [8, 12]: 2.2%
inhibition at 150 µM [8, 13]: -1.2%
inhibition at 150 µM [8, 14]: 5.6%
